Measurements taken from PubChem BioAssay AID330 (DTP/NCI, 2004).
Values joined by “and” are separate entries in the source; they are usually repeats but may differ in a detail not shown here. Identical values can stand only once. Inconclusive results and toxic doses are left out.

Tested on: P388 leukemia ip, CD2F1 mice, survival T/C
Assay: NCI In Vivo Anticancer Drug Screen. Data for tumor model P388 Leukemia (intraperitoneal) in CD2F1 (CDF1) mice
Details: endpoint: median survival time, higher = longer survival
Outline: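 Mice carrying the transplanted tumor received test compound or vehicle. Survival was recorded in each group, and the value is the treated-group measurement divided by that of the vehicle-treated control group.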

[1] = dose: 100.0 mg/kg/injection, schedule: Q01DX009 (ip), vehicle: saline with Tween-80
[2] = dose: 60.0 mg/kg/injection, schedule: Q01DX005 (ip), vehicle: saline with Tween-80
[3] = dose: 120.0 mg/kg/injection, schedule: Q01DX005 (ip), vehicle: saline with Tween-80
[4] = dose: 200.0 mg/kg/injection, schedule: Q01DX009 (ip), vehicle: saline with Tween-80

CCCCN(CCCC)CC(O)c1ccc(Br)c2ccccc12 (centres undefined) was tested, and the T/C (dose: 50.0 mg/kg/injection, schedule: Q01DX005 (ip), vehicle: saline with Tween-80) was 105 % of control, the T/C (dose: 100.0 mg/kg/injection, schedule: Q01DX005 (ip), vehicle: saline with Tween-80) was 102 % of control and the T/C (dose: 200.0 mg/kg/injection, schedule: Q01DX005 (ip), vehicle: saline with Tween-80) was 104 % of control.

In the case of Cc1cc(NC(=O)CCc2ccc(N3C(N)=NC(N)=NC3(C)C)cc2)ccc1S(=O)(=O)F, the T/C (dose: 1.5 mg/kg/injection, schedule: Q01DX009 (ip), vehicle: saline sonified) is reported as 122 % of control, the T/C (dose: 25.0 mg/kg/injection, schedule: Q01DX009 (ip), vehicle: saline with Tween-80) is reported as 150 % of control and the T/C [1] is reported as 113 % of control.

COc1cccc2c1C(=O)c1c(O)c3c(c(O)c1C2=O)C[C@@](O)(C(=O)CO)C[C@@H]3OC1CC(N2CCOCC2C#N)C(O)C(C)O1 (some centres undefined) was tested, and the T/C (dose: 9.38 micrograms/kg/injection, schedule: Q04DX003 (ip), vehicle: saline with Tween-80) was 191 % of control and 198 % of control, the T/C (dose: 9.38 micrograms/kg/injection, schedule: Q04DX003 (ip), vehicle: water) was 105 % of control and the T/C (dose: 15.0 micrograms/kg/injection, schedule: Q04DX003 (iv), vehicle: saline + alcohol) was 180 % of control. For the same compound, the T/C (dose: 18.75 micrograms/kg/injection, schedule: Q04DX003 (ip), vehicle: saline with Tween-80) was 252 % of control and 260 % of control, the T/C (dose: 18.75 micrograms/kg/injection, schedule: Q04DX003 (ip), vehicle: water) was 107 % of control and the T/C (dose: 22.0 micrograms/kg/injection, schedule: Q04DX003 (iv), vehicle: saline + alcohol) was 180 % of control. The T/C (dose: 37.5 micrograms/kg/injection, schedule: Q04DX003 (ip), vehicle: saline with Tween-80) was 110 % of control, the T/C (dose: 75.0 micrograms/kg/injection, schedule: Q04DX003 (ip), vehicle: water) was 178 % of control and 196 % of control and the T/C (dose: 150.0 micrograms/kg/injection, schedule: Q04DX003 (ip), vehicle: water) was 111 % of control. The T/C (dose: 300.0 micrograms/kg/injection, schedule: Q04DX003 (ip), vehicle: water) was 89 % of control.

In the case of Nc1ncncc1-c1ccc(F)cc1, the T/C (dose: 50.0 mg/kg/injection, schedule: Q01DX009 (ip), vehicle: saline) is reported as 103 % of control and the T/C (dose: 100.0 mg/kg/injection, schedule: Q01DX009 (ip), vehicle: saline) is reported as 101 % of control.

With O=C1CCC(O)=C1C1=NCCCC1 the T/C (dose: 100.0 mg/kg/injection, schedule: Q04DX002 (ip), vehicle: saline with Tween-80) was 94 % of control, the T/C (dose: 200.0 mg/kg/injection, schedule: Q04DX002 (ip), vehicle: saline with Tween-80) was 108 % of control and the T/C (dose: 400.0 mg/kg/injection, schedule: Q04DX002 (ip), vehicle: saline with Tween-80) was 101 % of control.

CCCCCCCC(=O)Nc1ccc(CC)cc1 was tested, and the T/C (dose: 100.0 mg/kg/injection, schedule: Q04DX003 (ip), vehicle: other) was 109 % of control, the T/C (dose: 200.0 mg/kg/injection, schedule: Q04DX003 (ip), vehicle: other) was 90 % of control and the T/C (dose: 400.0 mg/kg/injection, schedule: Q04DX003 (ip), vehicle: other) was 118 % of control.

With COC(=O)c1cc(-c2ccc(N)cc2)n2c(N)nnc2n1 the T/C [2] was 107 % of control, the T/C [3] was 91 % of control and the T/C (dose: 240.0 mg/kg/injection, schedule: Q01DX005 (ip), vehicle: saline with Tween-80) was 98 % of control.

In the case of CCOC(=O)N1CCN(c2cc(C)nc3cc(OC)ccc23)CC1, the T/C [2] is reported as 88 % of control and the T/C [3] is reported as 94 % of control.

CCNC(=O)CCC(NS(=O)(=O)c1ccccc1)C(=O)O (centres undefined) was tested, and the T/C (dose: 100.0 mg/kg/injection, schedule: Q04DX002 (ip), vehicle: Klucel (hydroxypropylcellulose) (HPC)) was 103 % of control, the T/C (dose: 200.0 mg/kg/injection, schedule: Q04DX002 (ip), vehicle: Klucel (hydroxypropylcellulose) (HPC)) was 97 % of control and the T/C (dose: 400.0 mg/kg/injection, schedule: Q04DX002 (ip), vehicle: Klucel (hydroxypropylcellulose) (HPC)) was 96 % of control.

COC(=O)c1cccc(COc2ccc([N+](=O)[O-])cc2Cl)c1 was tested, and the T/C [1] was 100 % of control, the T/C [4] was 100 % of control and the T/C (dose: 400.0 mg/kg/injection, schedule: Q01DX009 (ip), vehicle: saline with Tween-80) was 110 % of control.

In the case of Cc1ccc(CSCc2c(CSCc3ccc(C)cc3)c(CSCc3ccc(C)cc3)c(CSCc3ccc(C)cc3)c(CSCc3ccc(C)cc3)c2CSCc2ccc(C)cc2)cc1, the T/C (dose: 50.0 mg/kg/injection, schedule: Q01DX009 (ip), vehicle: saline with Tween-80) is reported as 92 % of control, the T/C [1] is reported as 97 % of control and the T/C [4] is reported as 86 % of control.

For N=C(N)c1ccc(Nc2ccc(-c3cc4ccc(C(=N)N)cc4[nH]3)cc2)cc1, the T/C (dose: 1.87 mg/kg/injection, schedule: Q01DX005 (ip), vehicle: Klucel (hydroxypropylcellulose) (HPC)) was 174 % of control and the T/C (dose: 7.5 mg/kg/injection, schedule: Q01DX005 (ip), vehicle: Klucel (hydroxypropylcellulose) (HPC)) was 166 % of control and 194 % of control.

In the case of C=CSS/C(=C/N(C=O)Cc1cnc(C)nc1N)CCO, the T/C (dose: 25.0 mg/kg/injection, schedule: Q01DX005 (ip), vehicle: Klucel (hydroxypropylcellulose) (HPC)) is reported as 108 % of control, the T/C (dose: 50.0 mg/kg/injection, schedule: Q01DX005 (ip), vehicle: Klucel (hydroxypropylcellulose) (HPC)) is reported as 108 % of control and the T/C (dose: 100.0 mg/kg/injection, schedule: Q01DX005 (ip), vehicle: Klucel (hydroxypropylcellulose) (HPC)) is reported as 102 % of control. The T/C (dose: 200.0 mg/kg/injection, schedule: Q01DX005 (ip), vehicle: Klucel (hydroxypropylcellulose) (HPC)) was 117 % of control.
